Experimental data taken from patent US12435044B2, “Pyridazinone herbicides and pyridazinone intermediates used to prepare a herbicide” (FMC Corporation, priority 2018, dated 2025).

What was measured:
Assay type in all cases: in vivo
[1] = system: soybean (GLXMA; Glycine max, cv. Pioneer 35T58); experiment: Test I pre-/postemergence, mixtures of Cpd. No. 20 with saflufenacil or pyroxasulfone; conditions: for Plant response rating (0 to 100 scale): GLXMA
From the text: (§1) This test evaluated the effect of mixtures of Cpd. No. 20 with saflufenacil or pyroxasulfone on several plant species. Seeds of plant species selected from corn (ZEAMD; Zea mays, cv. ‘Pioneer 1184’), soybean (GLXMA; Glycine max, cv. Pioneer 35T58), giant foxtail (SETFA; Setaria faberi), palmer amaranth (AMAPA; Amaranthus palmeri), common waterhemp (AMATU; Amaranthus rudis), mare's tail (ERICA; Conyza canadensis), and common ragweed (AMBEL; Ambrosia artemisiifolia) were planted in pots containing Tama Silt Loam soil and treated preemergence with a directed soil spray using test chemicals formulated in a non-phytotoxic solvent mixture which included a surfactant.
(§2) At the same time, plants selected from these crop and weed species were planted in pots containing Redi-Earth® planting medium (Scotts Company, 14111 Scottslawn Road, Marysville, Ohio 43041) comprising spaghnum peat moss, vermiculite, wetting agent and starter nutrients and treated postemergence with test chemicals formulated in the same manner. Plants ranged in height from 2 to 10 cm and were in the one- to two-leaf stage for the postemergence treatment. Treated plants and untreated controls were maintained in a greenhouse for approximately 14-21 d, after which time all treated plants were compared to untreated controls and visually evaluated for injury. Plant response ratings, summarized in Tables 11 to 14, are based on a 0 to 100 scale where 0 is no effect and 100 is complete control. A dash (-) response means no test result. Test results are presented as a mean of 4 reps.

[2] = system: mare's tail (ERICA; Conyza canadensis); experiment: as above; conditions: for Plant response rating (0 to 100 scale): Preemergence, ERICA
From the text: as §1, §2

[3] = system: palmer amaranth (AMAPA; Amaranthus palmeri); experiment: as above; conditions: for Plant response rating (0 to 100 scale): AMAPA
From the text: as §1, §2

[4] = system: common waterhemp (AMATU; Amaranthus rudis); experiment: as above; conditions: for Plant response rating (0 to 100 scale): AMATU
From the text: as §1, §2

[5] = system: giant foxtail (SETFA; Setaria faberi); experiment: as above; conditions: for Plant response rating (0 to 100 scale): SETFA
From the text: as §1, §2

[6] = system: Bulrush, Japanese (Scirpus juncoides); experiment: Test C flooded paddy test; conditions: Flood, scale 0 to 100
From the text: Plant species in the flooded paddy test consisted of rice (transplanted and water seeded, Oryza sativa), sedge, umbrella (small-flower umbrella sedge, Cyperus difformis), ducksalad (Heteranthera limosa), Bulrush, Japanese (Scirpus juncoides) and barnyardgrass (Echinochloa crus-galli) grown to the 2-leaf stage for testing. At time of treatment, test pots were flooded to 3 cm above the soil surface, treated by application of test compounds directly to the paddy water, and then maintained at that water depth for the duration of the test. Treated plants and controls were maintained in a greenhouse for 13 to 15 d, after which time all species were compared to controls and visually evaluated. Plant response ratings, summarized in Table C are based on a scale of 0 to 100 where 0 is no effect and 100 is complete control. A dash (-) response means no test result.

[7] = Preemergence, Cpd. No. 20 8 g a.i./ha alone
[8] = preemergence, Cpd. No. 20 16 g a.i./ha alone
[9] = preemergence, Cpd. No. 20 31 g a.i./ha alone
[10] = preemergence, Cpd. No. 20 62 g a.i./ha alone

Question: Which results are given for `Cc1ccc2ccc(C)c(-c3c(O)c(Cl)nn(C)c3=O)c2c1` [Cpd. No. 20, 6-chloro-4-(2,7-dimethyl-1-naphthalenyl)-5-hydroxy-2-methyl-3(2H)-pyridazinone]?
Answer: Plant response rating (0 to 100 scale) [1, 7]: 0; GLXMA plant response rating, 0 to 100 scale ([1]; postemergence, 8 g a.i./ha): 0; GLXMA plant response rating, 0 to 100 scale ([1]; postemergence, 16 g a.i./ha): 0; GLXMA plant response rating, 0 to 100 scale ([1]; postemergence, 31 g a.i./ha): 15; GLXMA plant response rating, 0 to 100 scale ([1]; postemergence, 62 g a.i./ha): 16; GLXMA plant response rating, 0 to 100 scale ([1]; preemergence, 8 g a.i./ha): 0; GLXMA plant response rating, 0 to 100 scale ([1]; preemergence, 16 g a.i./ha): 0; GLXMA plant response rating, 0 to 100 scale ([1]; preemergence, 31 g a.i./ha): 0; GLXMA plant response rating, 0 to 100 scale ([1]; preemergence, 62 g a.i./ha): 0; Plant response rating (0 to 100 scale) [1, 8]: 0; Plant response rating (0 to 100 scale) [1, 9]: 0; Plant response rating (0 to 100 scale) [1, 10]: 0; Plant response rating (0 to 100 scale) ([2]; Cpd. No. 20 8 g a.i./ha alone): 93; Plant response rating (0 to 100 scale) ([2]; Cpd. No. 20 16 g a.i./ha alone): 100; Plant response rating (0 to 100 scale) ([2]; Cpd. No. 20 31 g a.i./ha alone): 100; Plant response rating (0 to 100 scale) ([2]; Cpd. No. 20 62 g a.i./ha alone): 100; ERICA plant response rating, 0 to 100 scale ([2]; postemergence, 8 g a.i./ha): 85; ERICA plant response rating, 0 to 100 scale ([2]; postemergence, 16 g a.i./ha): 86; ERICA plant response rating, 0 to 100 scale ([2]; postemergence, 31 g a.i./ha): 90; ERICA plant response rating, 0 to 100 scale ([2]; postemergence, 62 g a.i./ha): 90; ERICA plant response rating, 0 to 100 scale ([2]; preemergence, 8 g a.i./ha): 93; ERICA plant response rating, 0 to 100 scale ([2]; preemergence, 16 g a.i./ha): 100; ERICA plant response rating, 0 to 100 scale ([2]; preemergence, 31 g a.i./ha): 100; ERICA plant response rating, 0 to 100 scale ([2]; preemergence, 62 g a.i./ha): 100; Plant response rating (0 to 100 scale) [3, 7]: 23; AMAPA plant response rating, 0 to 100 scale ([3]; postemergence, 8 g a.i./ha): 38; AMAPA plant response rating, 0 to 100 scale ([3]; postemergence, 16 g a.i./ha): 40; AMAPA plant response rating, 0 to 100 scale ([3]; postemergence, 31 g a.i./ha): 50; AMAPA plant response rating, 0 to 100 scale ([3]; postemergence, 62 g a.i./ha): 65; AMAPA plant response rating, 0 to 100 scale ([3]; preemergence, 8 g a.i./ha): 23; AMAPA plant response rating, 0 to 100 scale ([3]; preemergence, 16 g a.i./ha): 44; AMAPA plant response rating, 0 to 100 scale ([3]; preemergence, 31 g a.i./ha): 23; AMAPA plant response rating, 0 to 100 scale ([3]; preemergence, 62 g a.i./ha): 61; Plant response rating (0 to 100 scale) [3, 8]: 44; Plant response rating (0 to 100 scale) [3, 9]: 23; Plant response rating (0 to 100 scale) [3, 10]: 61; Plant response rating (0 to 100 scale) [4, 7]: 0; AMATU plant response rating, 0 to 100 scale ([4]; postemergence, 8 g a.i./ha): 50; AMATU plant response rating, 0 to 100 scale ([4]; postemergence, 16 g a.i./ha): 59; AMATU plant response rating, 0 to 100 scale ([4]; postemergence, 31 g a.i./ha): 81; AMATU plant response rating, 0 to 100 scale ([4]; postemergence, 62 g a.i./ha): 83; AMATU plant response rating, 0 to 100 scale ([4]; preemergence, 8 g a.i./ha): 0; AMATU plant response rating, 0 to 100 scale ([4]; preemergence, 16 g a.i./ha): 0; AMATU plant response rating, 0 to 100 scale ([4]; preemergence, 31 g a.i./ha): 0; AMATU plant response rating, 0 to 100 scale ([4]; preemergence, 62 g a.i./ha): 80; Plant response rating (0 to 100 scale) [4, 8]: 0; Plant response rating (0 to 100 scale) [4, 9]: 0; Plant response rating (0 to 100 scale) [4, 10]: 80; Plant response rating (0 to 100 scale) [5, 7]: 25; SETFA plant response rating, 0 to 100 scale ([5]; postemergence, 8 g a.i./ha): 55; SETFA plant response rating, 0 to 100 scale ([5]; postemergence, 16 g a.i./ha): 80; SETFA plant response rating, 0 to 100 scale ([5]; postemergence, 31 g a.i./ha): 76; SETFA plant response rating, 0 to 100 scale ([5]; postemergence, 62 g a.i./ha): 78; SETFA plant response rating, 0 to 100 scale ([5]; preemergence, 8 g a.i./ha): 25; SETFA plant response rating, 0 to 100 scale ([5]; preemergence, 16 g a.i./ha): 39; SETFA plant response rating, 0 to 100 scale ([5]; preemergence, 31 g a.i./ha): 84; SETFA plant response rating, 0 to 100 scale ([5]; preemergence, 62 g a.i./ha): 99; Plant response rating (0 to 100 scale) [5, 8]: 39; Plant response rating (0 to 100 scale) [5, 9]: 84; Plant response rating (0 to 100 scale) [5, 10]: 99

Question: `Cc1cc(Cl)c2ccccc2c1-c1c(O)c(Cl)nn(C)c1=O` [Cpd. No. 65] was tested. Which “Plant response rating, Bulrush, Japanese” value ([6]; 62 g ai/ha) did it give?
Answer: 75

Question: What about the “Plant response rating, Bulrush, Japanese” value ([6]; 125 g ai/ha) of the same compound?
Answer: 90
